# Results published in patent US20020182619A1, “Compositions, kits, and methods for identification, assessment, prevention, and therapy of ovarian cancer” (Millennium Pharmaceuticals, Inc., priority 2000, published 2002).
# Tested on: ovarian cell line (OVCAR3)
# Assay: Transcript profiling on nylon arrays of OVCAR3 untreated or treated with LPA, LYS294002, or both
# Assay type: cell-based
# Procedure: Nylon arrays were prepared by spotting purified PCR product onto a nylon membrane using a robotic gridding system linked to a sample database. Several thousand clones were spotted on each nylon filter.
# RNA or DNA from cell lines were used for hybridization against the nylon arrays. The RNA or DNA is labeled utilizing an in vitro reverse transcription reaction that contains a radiolabeled nucleotide that is incorporated during the reaction. Hybridization experiments were carried out by combining labeled RNA or DNA samples with nylon filters in a hybridization chamber. Duplicate, independent hybridization experiments were performed to generate transcriptional profiling data. See, Nature Genetics, 21 (1999).
# The level of expression of ˜25,000 potential markers were measured in 4 samples, an untreated ovarian cell line (OVCAR3), OVCAR3 treated with LPA, OVCAR3 treated with LYS294002, and OVCAR3 treated with LPA and LYS294002. LYS294002 is a specific inhibitor of the P13Kinase pathway.
# Table 1 represents the markers that are expressed at least 2.5 fold greater in the OVCAR3 cell line treated with LPA as compared to the untreated cell line (column G). Table 1 also lists the expression value of these potential marker in the 4 samples, untreated OVCAR3, OVCAR3 treated with LPA, OVCAR3 treated with LYS294002, and OVCAR3 treated with LYS294002 and LPA (columns C-F). […]
substance,measurement,setting,value
lysophosphatidic acid [LPA],UPinLPA vs OVCAR3: marker expression in the OVCAR3 cell line treated with LPA as compared to the untreated cell line,"markers of Table 1, quotient of Ave-LPA divided by Ave-OVCAR3",at least 2.5 fold
same,UPinOVCAR3 vs LPA: marker expression in the untreated OVCAR3 cell line as compared to the cell line treated with LPA,"markers of Table 2, quotient of Ave-OVCAR3 divided by Ave-LPA",at least 4 fold
